The target in this experiment is T1, human β3 receptors (Homo sapiens, UniProt P13945).
T1 construct: Full length β3 AR clones (402 amino acids) containing the last 6 amino acids of hβ3—AR; expressed in transfected cells; host or cells: CHO cells
Briefly: cAMP response (SPA) in CHO cells expressing cloned human β3 adrenergic receptor. The format is cell-based. The settings on record: for EC50: CHO cells expressing human β3 receptor, cAMP, 30 min incubation, 10^−9 M to 10^−5 M; for IA(β3): maximal response compared to the maximal response of isoproterenol at 10^−5 M. A digest of the protocol: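 CHO cells transfected with cloned human β3-AR were incubated with compound at 37° C for 30 min, stopped with 0.2N HCl and neutralized. cAMP was measured by SPA. Activity is expressed as per cent of the maximal isoproterenol (10^−5 M) response.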

Values joined by “and” are separate entries in the source; they are usually repeats but may differ in a detail not shown here. Identical values can stand only once.

T1 sequence (P13945 whole entry): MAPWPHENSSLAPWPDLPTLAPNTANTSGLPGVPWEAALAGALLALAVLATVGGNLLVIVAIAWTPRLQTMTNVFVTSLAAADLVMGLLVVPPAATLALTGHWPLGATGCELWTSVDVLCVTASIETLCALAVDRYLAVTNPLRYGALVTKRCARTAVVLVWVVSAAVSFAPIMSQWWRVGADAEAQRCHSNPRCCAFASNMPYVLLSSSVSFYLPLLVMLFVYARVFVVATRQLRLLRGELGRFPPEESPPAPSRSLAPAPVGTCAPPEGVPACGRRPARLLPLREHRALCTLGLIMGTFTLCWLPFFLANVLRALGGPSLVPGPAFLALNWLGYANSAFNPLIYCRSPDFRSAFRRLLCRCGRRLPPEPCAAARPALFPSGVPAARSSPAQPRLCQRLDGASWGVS

The EC50 is the concentration at which the effect is half-maximal. High values mean weaker potency, low ones greater potency. Consider `CS(=O)(=O)Nc1cc([C@@H](O)CNCC2CCN(c3ccc(C(=O)N4CCCC4C(=O)O)cc3)CC2)ccc1O` (stereo in doubt) [Example 115, (2S)-1-[4-(4-{[((2R)-2-Hydroxy-2-{4-hydroxy-3-[(methylsulfonyl)amino]phenyl}-ethyl)amino]methyl}piperidin-1-yl)benzoyl]pyrrolidine-2-carboxylic Acid], for which it took 0.066 µM to reach a half-maximal effect (EC50) and the “IA(β3)” value is listed as 1.

Regarding `O=C(Nc1ccccc1)Nc1ccc(S(=O)(=O)N2CCC(CNC[C@H](O)COc3cccc4[nH]c(=O)[nH]c34)CC2)cc1` [Example 62, 1-[4-(4-{[2-Hydroxy-3-(2-oxo-2,3-dihydro-1H-benzoimidazol-4-yloxy)-propylamino]-methyl}-piperidine-1-sulfonyl)-phenyl]-3-phenyl-urea], the EC50 came out at 0.01 µM and the “IA(β3)” value was 0.68.

For `COc1ccc(S(=O)(=O)N2CCC(CNC[C@H](O)COc3cccc4[nH]c(=O)[nH]c34)CC2)cc1OC` [Example 42, 4-((2S)-2-Hydroxy-3-{[1-(3,4-dimethoxy-benzenesulfonyl)-piperidin-4-ylmethyl]-amino}-propoxy)-1,3-dihydro-benzoimidazol-2-one], the EC50 was found to be 0.15 µM and the “IA(β3)” value was determined as 0.69.

Regarding `CN1CCN(c2ccc(S(=O)(=O)N3CCC(CNC[C@H](O)COc4ccc(O)cc4)CC3)cc2)C1=O` [Example 94, 1-[4-(4-{[2-Hydroxy-3-(4-hydroxy-phenoxy)-propylamino]-methyl}-piperidine-1-sulfonyl)-phenyl]-3-methyl-imidazolidin-2-one], the concentration giving a half-maximal response (EC50) was determined as 0.51 µM and the “IA(β3)” value is listed as 0.76.

Take `O=[N+]([O-])c1ccc(S(=O)(=O)N2CCC(CNC[C@H](O)COc3ccc(O)cc3)CC2)cc1` [Example 45, 4-((2S)-2-Hydroxy-3-{[1-(4-nitro-benzenesulfonyl)-piperidin-4-ylmethyl]-amino}-propoxy)-phenol]: the EC50 is 0.61 µM and the “IA(β3)” value is recorded as 1.

Turning to `O=C1Cc2c(cccc2OC[C@@H](O)CNCC2CCN(S(=O)(=O)c3ccc(OC(F)(F)F)cc3)CC2)N1` [Example 46, 4-((2S)-2-Hydroxy-3-{[1-(4-trifluoromethoxy-benzenesulfonyl)-piperidin-4-ylmethyl]-amino}-propoxy)-1,3-dihydro-indol-2-one], the 50% effective concentration (EC50) amounted to 0.222 µM and the “IA(β3)” value stood at 0.81.

On to `COc1ccc(S(=O)(=O)N2CCC(CNC[C@H](O)COc3cccc4[nH]c(C)cc34)CC2)cc1` [Example 40, 4-((2S)-2-Hydroxy-3-{[1-(4-methoxy-benzenesulfonyl)-piperidin-4-ylmethyl]-amino}-propoxy)-2-methyl-1H-indole], for which the 50% effective concentration (EC50) came out at 0.49 µM and the “IA(β3)” value came to 0.23.

On to `O=c1[nH]c2ccc(OCC(O)CNCC3CCN(S(=O)(=O)c4cccc(Br)c4)CC3)cc2[nH]1` (stereo in doubt) [Example 178], for which it took 0.21 µM to reach a half-maximal effect (EC50) and the “IA(β3)” value turned out to be 0.84.

For the compound `CCCCCCCCNC(=O)Nc1ccc(S(=O)(=O)N2CCC(CNC[C@H](O)c3ccc(O)c(NS(C)(=O)=O)c3)CC2)cc1` [Example 73, (R)-N-{2-Hydroxy-5-[1-hydroxy-2-({1-[4-(3-octyl-ureido)-benzenesulfonyl]-piperidin-4-ylmethyl}-amino)-ethyl]-phenyl}-methanesulfonamide], the EC50 amounted to 0.006 µM and the “IA(β3)” value was 1.

As to `COc1ccc(S(=O)(=O)N2CCC(CNC[C@H](O)COc3c(Br)ccc4[nH]c5ccccc5c34)CC2)cc1` [Example 34, (2S)-1-(3-Bromo-9H-carbazol-4-yloxy)-3-{[1-(4-methoxy-benzenesulfonyl)-piperidin-4-ylmethyl]-amino}-propan-2-ol], the response was half-maximal at 7 µM (EC50) and the “IA(β3)” value is recorded as 0.36.

In the case of `CS(=O)(=O)Nc1cc([C@@H](O)CNCC2CCN(c3ccc(C(=O)NC(Cc4ccccc4)C(=O)O)cc3)CC2)ccc1O` (stereo in doubt) [Example 109, (2S)-2-{[4-(4-{[((2R)-2-Hydroxy-2-{4-hydroxy-3-[(methylsulfonyl)amino]phenyl}-ethyl)amino]methyl}piperidin-1-yl)benzoyl]amino}-3-phenylpropanoic Acid], the concentration for a half-maximal effect (EC50) was determined as 0.031 µM and the “IA(β3)” value was 1.2.

On to `CS(=O)(=O)Nc1cc([C@@H](O)CNCC2CCN(S(=O)(=O)c3c(Cl)sc(Cl)c3Br)CC2)ccc1O` [Example 173, N-(5-{(1R)-2-[({1-[(4-bromo-2,5-dichlorothien-3-yl)sulfonyl]-piperidin-4-yl}methyl)amino]-1-hydroxyethyl}-2-hydroxyphenyl)-methanesulfonamide], for which the EC50 is 0.388 µM and 0.38 µM; the “IA(β3)” value was 1.34 and 1.15.

`CN(Cc1cc(F)ccc1F)C(=O)Nc1ccc(S(=O)(=O)N2CCC(CNC[C@H](O)c3ccc(O)c(NS(C)(=O)=O)c3)CC2)cc1` [Example 87, N-[5-[(R)-2-[[[1-[[4-[[[[(2,5-Difluorophenyl)methyl]-methylamino]-carbonyl]amino]-phenyl]sulfonyl]-4-piperidinyl]methyl]amino]-1-hydroxyethyl]-2-hydroxyphenyl]-methanesulfonamide]: the half-maximal effective concentration (EC50) is 0.007 µM and the “IA(β3)” value is given as 1.

With `COC(=O)COc1ccc(CNC(=O)Nc2ccc(S(=O)(=O)N3CCC(CNC[C@H](O)c4ccc(O)c(NS(C)(=O)=O)c4)CC3)cc2)c(F)c1` [Example 88, [3-Fluoro-4-[[[[[4-[[4-[[[(R)-2-hydroxy-2-[4-hydroxy-3-[(methylsulfonyl)amino]-phenyl]ethyl]amino]-methyl]-1-piperidinyl]sulfonyl]phenyl]amino]-carbonyl]-amino]methyl]phenoxy]acetic Acid, Methyl Ester], the EC50 stood at 0.022 µM and the “IA(β3)” value stood at 1.

In the case of `COC(=O)CCc1nc(-c2ccc(S(=O)(=O)N3CCC(CNC[C@H](O)c4ccc(O)c(NS(C)(=O)=O)c4)CC3)cc2)no1` [Example 104, 3-{3-[4-(4-{[(2R)-2-Hydroxy-2-(4-hydroxy-3-methanesulfonylamino-phenyl)-ethylamino]-methyl}-piperidine-1-sulfonyl)-phenyl]-[1,2,4]oxadiazol-5-yl}-propionic Acid Methyl Ester], the EC50 stood at 0.008 µM and the “IA(β3)” value was determined as 1.

For the compound `Oc1ccc2[nH]c3ccccc3c2c1OC[C@@H](O)CNCC1CCN(CCC(F)(F)F)CC1` [Example 15, 4-((2S)-2-Hydroxy-3-{[1-(3,3,3-trifluoro-propyl)-piperidin-4-ylmethyl]-amino}-propoxy)-9H-carbazol-3-ol], the half-maximal effective concentration (EC50) was found to be 12.5 µM and the “IA(β3)” value is 0.52.

As for `CS(=O)(=O)Nc1cc([C@@H](O)CNCC2CCN(S(=O)(=O)c3ccc(NC(=O)N4CCC[C@H]4C(=O)O)cc3)CC2)ccc1O` [Example 112, (2S)-1-({4-[(4-{[((2R)-2-Hydroxy-2-{4-hydroxy-3-[(methylsulfonyl)amino]phenyl}-ethyl)amino]methyl}piperidin-1-yl)sulfonyl]anilino}carbonyl)pyrrolidine-2-carboxylic Acid], the EC50 came out at 0.131 µM and the “IA(β3)” value was 0.93.

For the compound `CCOC(=O)Cc1cn(-c2ccc(S(=O)(=O)N3CCC(CNC[C@H](O)c4ccc(O)c(NS(C)(=O)=O)c4)CC3)cc2)c2ccccc12` [Example 96, {1-[4-(4-{[(2R)-2-Hydroxy-2-(4-hydroxy-3-methanesulfonylamino-phenyl)-ethylamino]-methyl}-piperidine-1-sulfonyl)-phenyl]-1H-indol-3-yl}-acetic Acid Ethyl Ester], the half-maximal effective concentration (EC50) was determined as 0.013 µM and the “IA(β3)” value is reported as 0.85.

As for `COc1ccc(S(=O)(=O)N2CCC(CNC[C@H](O)COc3cccc4[nH]c(=O)[nH]c34)CC2)cc1` [Example 39, 4-((2S)-2-Hydroxy-3-{[1-(4-methoxy-benzenesulfonyl)-piperidin-4-ylmethyl]-amino}-propoxy)-1,3-dihydro-benzoimidazol-2-one], the EC50 is 0.03 µM and the “IA(β3)” value is recorded as 0.81.

Regarding `CCCCCCC(=O)Nc1ccc(S(=O)(=O)N2CCC(CNC[C@H](O)COc3ccc(O)cc3)CC2)cc1` [Example 90, Heptanoic Acid [4-(4-{[(2S)-2-Hydroxy-3-(4-hydroxy-phenoxy)-propylamino]-methyl}-piperidine-1-sulfonyl)-phenyl]-amide], the EC50 is 0.269 µM and the “IA(β3)” value was 0.91.

In the case of `COc1ccc(S(=O)(=O)N2CCC(CNC[C@H](O)COc3cccc4c3-c3ccccc3C4=O)CC2)cc1` [Example 38, 4-((2S)-2-Hydroxy-3-{[1-(4-methoxy-benzenesulfonyl)-piperidin-4-ylmethyl]-amino}-propoxy)-fluoren-9-one], the EC50 is 0.365 µM and the “IA(β3)” value is recorded as 0.36.

Consider `CCCCCCCCN1CCC(CNC[C@H](O)COc2cccc3[nH]c4ccccc4c23)CC1` [Example 27], for which the half-maximal effective concentration (EC50) was found to be 1.03 µM and the “IA(β3)” value came out at 0.51.

Regarding `Cc1cc2cccc(OC[C@@H](O)CNCC3CCN(S(=O)(=O)c4ccc(NC(=O)Nc5ccccc5)cc4)CC3)c2[nH]1` [Example 61, 1-[4-(4-{[(2S)-2-Hydroxy-3-(2-methyl-1H-indol-7-yloxy)-propylamino]-methyl}-piperidine-1-sulfonyl)-phenyl]-3-phenyl-urea], a half-maximal effect (EC50) was put at 0.097 µM and the “IA(β3)” value came to 0.4.

Source of the values: US6506901B2, “Substituted 2-(S)-hydroxy-3-(piperidin-4-yl-methylamino)-propyl ethers and substituted 2-aryl-2-(R)-hydroxy-1-(piperidin-4-yl-methyl)-ethylamine β-3 adrenergic receptor agonists” (Wyeth, priority 2000, dated 2003).
